The subject of test [1] is M. tuberculosis H37Rv. The format is cell-based, Mycobacterium tuberculosis. Particulars: 2×10^9 cells plated on 1.6 µg/mL, 10 times MIC.
Test [2] relates to M. tuberculosis. The format is cell-based. The following applies: for Enhancement of activity against M. tuberculosis in the presence of the partner drug: checkerboard, SB-P17G-A20 with rifampicin.
Test [3] has as its system M. tuberculosis clinical isolates. The test can be described thus: microbe, parasite or virus in culture. The format is cell-based. Particulars: Mycobacterium tuberculosis, read-out: MIC against different clinical strains of M. tuberculosis.

In brackets after ≈: the same amount, converted by molar mass.

Take `CN(C)c1cc2[nH]c(C3CCCCC3)nc2cc1NC(=O)c1ccc(OC(F)(F)F)cc1` [SB-P17G-A20]: in test [1], the Spontaneous resistant mutants entry is reported as “no single resistant colony was obtained”. Further, the “Enhancement of activity against M. tuberculosis in the presence of the partner drug” value in test [2] is 2–4 fold. In test [2] (rifampicin in combination with SB-P17G-A20), the ΣFIC came to 0.75. Moreover, the MIC in test [3] is 0.16 µg/mL (≈ 0.358 µM).
As for `CO[C@H]1/C=C/O[C@@]2(C)Oc3c(C)c(O)c4c(O)c(c(/C=N/N5CCN(C)CC5)c(O)c4c3C2=O)NC(=O)/C(C)=C\C=C\[C@H](C)[C@H](O)[C@@H](C)[C@@H](O)[C@@H](C)[C@H](OC(C)=O)[C@@H]1C` [rifampicin, reference compound], the “Enhancement of activity against M. tuberculosis in the presence of the partner drug” value in test [2] was 2 fold.

(Values after PMC3988029, “A Trisubstituted Benzimidazole Cell Division Inhibitor with Efficacy against Mycobacterium tuberculosis” (PLoS ONE, 2014).)
